From patent US20250161308A1, “Methods of Treating Covid-Related Disorders” (priority 2022, published 2025)
Like-named read-outs stand apart in the source and are kept apart here.

What was measured:
[1] = test system: patient in need of treatment for long COVID; experiment: Treating long COVID (Example 1), clinical screening assessments; assay type: in vivo, human; conditions: patients with long COVID
Description: A Compound of Formula (I), such as Compound 2a or Compound 1a, or a pharmaceutically acceptable salt thereof, is administered orally to a patient in need of treatment for long COVID.
In some embodiments, a patient in need of treatment for long COVID is assessed with ADCS-ADL23. The ADCS-ADL23 (Galasko, 1997) is a 23-item assessment of functional impairment in terms of activities of daily living administered to the support person/caregiver. It comprises 23 questions about the subject's involvement and level of performance across items representing daily living. The questions range from basic to instrumental activities of daily living. Each item is rated from the highest level of independent performance to complete loss. The total score range is from 0 to 78, with lower scores indicating greater functional impairment.
A patient in need of treatment for long COVID is assessed with ERP P300. ERP P300 is a quantitative, unbiased, non-invasive method of recording task-related brain processing speed, elicited by external stimuli, e.g., an oddball auditory stimulus, and is a well-established functional biomarker, particularly of working memory access (Ally, 2006). ERP P300 is characterized by a stereotyped series of voltage deflections occurring after the respective odd tone to be counted, with early features (<100 msec) corresponding to unconscious sensory transmission (auditory cortex, N100), and later features produced by cognitive processing in the ventral attentional network, i.e., P300, referring to the large positive deflection at roughly 300 msec in healthy adults (young or elderly). The P300 latency is sensitive to detecting reduced synaptic transmission related to cognitive decline in AD patients and other dementias (Olichney, 2011).

[2] = test system: Rat primary cortical neuron cultures; assay type: cell-based; conditions: for Significance of neuroprotection vs 1 uM LPS: 24 h LPS
Rat hippocampal neurons [3] = experiment: Neurite outgrowth assay; assay type: cell-based
Rat hippocampal neurons [4] = experiment: Synaptogenesis assay; assay type: cell-based; conditions: for Significant increase in: Synapses: Table 4 study
[5] = test system: scopolamine-induced spatial memory deficits in rats; experiment: Scopolamine-induced spatial memory deficit, Morris water maze (3 mg/kg scopolamine, 8 days); assay type: in vivo, rat

Question: Which results are given for `CCC(C)CN1CC2N(C(=O)c3ccc(OC(F)F)cc3)CCC(=O)N2[C@@H](C)C1=O` (some centres unmarked) [Compound 2a]?
Answer: patient outcome as measured by one or more of the screening assessments [1]: reduces the rate of decline, stabilizes, or improves patient outcome; safety and tolerability [1]: acceptable safety and tolerability; Significance of neuroprotection vs 1 uM LPS ([2]; 0.1 nM): +++ (+++ indicates p<0.001); Significance of neuroprotection vs 1 uM LPS ([2]; 1 nM): +++ (+++ indicates p<0.001); Significance of neuroprotection vs 1 uM LPS ([2]; 10 nM): +++ (+++ indicates p<0.001); Significance of neuroprotection vs 1 uM LPS ([2]; 100 nM): +++ (+++ indicates p<0.001); Significance of neuroprotection vs 1 uM LPS ([2]; 1 μM): +++ (+++ indicates p<0.001); protection of primary neurons from LPS-stimulated inflammatory toxicity ([2]; at at least one dose tested): protected primary neurons from LPS-stimulated inflammatory toxicity; neurite length / extension of neurites (in words) (Rat hippocampal neurons [3]): increase neurite length at a concentration of 10 nM; Significant increase in: Neurite length (Rat hippocampal neurons [3]; 10 nM, Table 4 study): ++++ (++++ = p < 0.0001); synapse counts (in words) (Rat hippocampal neurons [4]): increase synapse counts at all concentrations tested; Significant increase in: Synapses (Rat hippocampal neurons [4]; 1 nM): ++++ (++++ = p < 0.0001); Significant increase in: Synapses (Rat hippocampal neurons [4]; 10 nM): ++++ (++++ = p < 0.0001); Significant increase in: Synapses (Rat hippocampal neurons [4]; 100 nM): ++++ (++++ = p < 0.0001); Cognitive Improvement ([5]; 0.1 mg/kg PO): − (− indicates post-test p-value above 0.06); Cognitive Improvement ([5]; 1 mg/kg PO): +++ (+++ indicates post-test p-value below 0.01); Cognitive Improvement ([5]; 10 mg/kg PO): − (− indicates post-test p-value above 0.06)
